Molecules are shown by their SMILES. Entries after “also recorded” stand apart in the source; their conditions may differ.

Format in all cases: cell-based, mouse
In one assay the test system is c-Fos. Description: Quantitative real-time PCR, c-Fos mRNA in RAW264.7 cells. How it is done: (§1) METHOD EXAMPLE. Quantitative real-time PCR. Total RNA was extracted using an RNeasy Plus mini kit (Qiagen, Germantown, Md., USA). Reverse transcription was conducted with high capacity cDNA reverse transcription kits (Applied Biosystems, Carlsbad, Calif., USA), and quantitative real-time PCR was performed using ABI 7500 with Power SYBR green PCR master mix kits (Applied Biosystems). We evaluated mRNA levels of ATF4, Osteocalcin (OCN), NFATcl, c-Fos, tartrate-resistant acid phosphatase (TRAP), and osteoclast-associated receptor (OSCAR) with the PCR primers listed in Table 1. GAPDH was used for internal control. The relative mRNA abundance for the selected genes with respect to the level of GAPDH mRNA was expressed as a ratio of Streated/Scontrol, where Streated=mRNA level for the cells treated with chemical agents, and Scontrol=mRNA level for control cells.
(§2) METHOD EXAMPLE. Partial suppression of mRNA levels of NFATcl, c-Fos, TRAP, and OSCAR by salubrinal. […] On day 2, for instance, the RANKL-driven increase was 9.4±0.5 fold (NFATcl), 1.9±0.1 fold (c-fos), 165±4.2 fold (TRAP), and 467±22 fold (OSCAR). The reduction by 20 μM salubrinal was 46% (NFATcl), 32% (c-fos), 35% (TRAP), and 21% (OSCAR) (FIG. 5A).
(§3) METHOD EXAMPLE. Reduction of RANKL-induced NFATcl, c-Fos, TRAP, and OSCAR by guanabenz. […] The normalized level of “1” was defined as the level for the cells that were not treated with RANKL without administration of guanabenz.
For orientation: Quantitative PCR measures a nucleic acid by following its amplification.

For assay [1], the system named is tartrate-resistant acid phosphatase (TRAP). Description: Quantitative real-time PCR, TRAP mRNA in RAW264.7 cells. As to conditions: for expression of TRAP: absence of RANKL administration. How it is done: as §1, §2, §3
Assay [2] concerns osteoclast-associated receptor (OSCAR). Description: Quantitative real-time PCR, OSCAR mRNA in RAW264.7 cells. How it is done:
as §1, §2, §3

The test system of assay [3] is NFATc1. Description: Western immunoblotting, NFATc1 expression in RAW264.7 cells. As to conditions: for expression of NFATc1: absence of RANKL administration. On the procedure:
METHOD EXAMPLE. Downregulation of NFATcl in RAW264.7 cells by salubrinal. NFATcl is a transcription factor critical for activating osteoclastogenesis. […] The RANKL-induced expression of NFATcl was reduced by administration of 5-20 μM salubrinal on both days, and the effect of salubrinal was dose dependent (FIG. 4).
as §3
(§4) METHOD EXAMPLE. Western Immunoblotting. Cells were lysed in a radioimmunoprecipitation assay (RIPA) buffer containing protease inhibitors (Santa Cruz Biotechnology, Santa Cruz, Calif., USA) and phosphatase inhibitors (Calbiochem, Billerica, Mass., USA). Isolated proteins were fractionated using 10-15% SDS gels and electro-transferred to Immobilon-P membranes (Millipore, Billerica, Mass., USA). The membrane was incubated for 1 h with primary antibodies followed by 45 min incubation with goat anti-rabbit or anti-mouse IgG conjugated with horseradish peroxidase (Cell Signaling, Danvers, Mass., USA). We used antibodies against ATF4, NFATcl (Santa Cruz), p-eIF2α (Thermo Scientific, Waltham, Mass., USA), eIF2α, caspase 3, cleaved caspase 3, p38 and p-p38 mitogen activated protein kinase (MAPK), extracellular signal-regulated kinase (ERK) and p-ERK, nuclear factor kappa B (NFκB) p65 and p-NFκB p65 (Cell Signaling), and β-actin (Sigma). Protein levels were assayed using a SuperSignal west femto maximum sensitivity substrate (Thermo Scientific), and signal intensities were quantified with a luminescent image analyzer (LAS-3000, Fuji Film, Tokyo, Japan).
(§5) METHOD EXAMPLE. Temporal profile of p-eIF2α and NFATcl. […] Note that the normalized level of “1” in FIG. 6C was defined as the level for the cells that were not treated with RANKL without administration of guanabenz.
In general terms: Immunoblotting shows a protein as a band on a membrane.

The test system of assay [4] is p-eIF2α. The assay can be described thus: Western immunoblotting, p-eIF2α in RAW264.7 cells. As to conditions: with RANKL.
Text: as §3, §4
METHOD EXAMPLE. […]

Assay [5] relates to NFATc1. Description: NFATc1 expression after RNA interference for eIF2α in RAW264.7 cells. The settings on record: for reduction of NFATc1: 20 μM. How it is done: as §4
(§6) METHOD EXAMPLE. Knockdown of ATF4 and eIF2α by siRNA. Cells were treated with siRNA specific to ATF4 and eIF2α (Life Technologies). Selected target sequences for knockdown of ATF4 and eIF2α were: ATF4, 5′-GCU GCU UAC AUU ACU CUA A-3′; and eIF2α, 5′-CGG UCA AAA UUC GAG CAG A-3′. As a nonspecific control, a negative siRNA (Silencer Select #1, Life Technologies) was used. Cells were transiently transfected with siRNA for ATF4, eIF2α or control in Opti-MEM I medium with Lipofectamine RNAiMAX (Life Technologies). Six hours later, the medium was replaced by regular culture medium. The efficiency of silencing was assessed with immunoblotting or quantitative PCR 48 h after transfection.
METHOD EXAMPLE. Reduction in salubrinal/guanabenz-driven suppression of NFATcl expression by RNA interference for eTF2α. To evaluate the effects of eIF2α on the expression level of NFATcl, RNA interference specific for eIF2α together with a non-specific control (NC) was used (FIG. 10). […] However, the expression of NFATcl was reduced only by 20% in the cells transfected with eIF2α siRNA.

Assay [6] deals with p-eIF2α. The assay can be described thus: Western immunoblotting, p-eIF2α in MC3T3 E1-14 cells. How it is done:
as §4
METHOD EXAMPLE. ATF4-mediated elevation of osteocalcin mRNA in MC3T3 E1-14 cells. Salubrinal is an inhibitor of de-phosphorylation of eIF2α. […]

The next assay concerns Osteocalcin (OCN). Description: Quantitative real-time PCR, osteocalcin mRNA in MC3T3 E1-14 cells. As to conditions: for increase of the level of osteocalcin mRNA: 5 μM salubrinal. How it is done:
as §1, §6
METHOD EXAMPLE. ATF4-mediated elevation of osteocalcin mRNA in MC3T3 E1-14 cells. Salubrinal is an inhibitor of de-phosphorylation of eIF2α. […] Furthermore, the level of osteocalcin mRNA was increased 3.3±0.5 fold (24 h) and 3.3±0.3 fold (32 h) (FIG. 2B). […] Non-clonal MC3T3 E1 cells also presented elevation of p-eIF2α and ATF4, together with an increase in the mRNA levels of ATF4 and osteocalcin (Supplementary FIG. S2).

The test system of the next assay is p-ERK. Description: Western immunoblotting, p-ERK in RAW264.7 cells. As to conditions: 20 μM salubrinal. On the procedure:
as §4, §5

Another assay concerns p-p38 MAPK. The assay can be described thus: Western immunoblotting, p-p38 MAPK in RAW264.7 cells. The settings on record: 20 μM salubrinal. On the procedure: as §4, §5
A further assay deals with p-NFκB. Description: Western immunoblotting, p-NFκB in RAW264.7 cells. As to conditions: 20 μM salubrinal. How it is done:
as §4, §5

Where [7] appears, read: 20 μM guanabenz, 2 days after RANKL.
Where [8] appears, read: 5 and 10 μM guanabenz, 2 days after RANKL.
Where [9] appears, read: cells transfected with the control siRNA.
The mark [10] stands for this setting: 20 μM salubrinal, day 2 after RANKL.
[11] abbreviates: 0.1-1 μM salubrinal, with RANKL, day 2 and day 4.

For `N=C(N)N/N=C/c1c(Cl)cccc1Cl` [guanabenz], the “c-Fos mRNA level” value in the assay on c-Fos (setting [7]) was “reduced”. Also, the “TRAP mRNA level” value in assay [1] (setting [7]) is reported as “reduced”; in assay [1] (setting [8]) it was “effective in reducing”. Besides, in assay [1], the “expression of TRAP” value is recorded as “did not significantly alter”. Further, the entries for the “OSCAR mRNA level” value in assay [2] (setting [7]) and in [2] (setting [8]) were “reduced” and “effective in reducing”, respectively. In the assay with NFATc1 [3] (20 μM guanabenz, with RANKL), the “temporal expression profile of NFATc1” value is recorded as “partially suppressed in 8 h”. In addition, the “expression of NFATc1” value in the assay with NFATc1 [3] was “did not significantly alter”. Besides, in the assay on NFATc1 [3] (guanabenz dose response, 2 days after RANKL), the “induction of NFATc1 by RANKL” value is recorded as “suppressed by guanabenz in a dose dependent manner”. For the same compound, in the assay on p-eIF2α [4] (20 μM guanabenz), the “temporal expression profile of p-eIF2α” value is “upregulatcd in 2 h”. In addition, the “suppressive effect on NFATc1 level” value in the assay on NFATc1 [5] (20 μM guanabenz, transfection of eIF2α siRNA) was “abolished the suppressive effect”. For the same compound, in the assay on NFATc1 [5] (setting [9]), the “reduction of NFATc1” value is reported as 43%. Moreover, the p-eIF2α entry in the assay on p-eIF2α [6] (guanabenz) was “increase in p-eIF2α and ATF4”. The “mRNA level of osteocalcin” value in the assay with Osteocalcin (OCN) (guanabenz dose response) is “elevated the mRNA level of osteocalcin in a dose dependent manner”.

Take `O=C(/C=C/c1ccccc1)NC(NC(=S)Nc1cccc2cccnc12)C(Cl)(Cl)Cl` (stereo not drawn) [salubrinal]: the “reduction of c-fos mRNA level” value in the assay with c-Fos (setting [10]) is 32%. Also, the “c-fos mRNA level” value with c-Fos (0.1-1 μM salubrinal, with RANKL, except on day 4) is on record as “did not contribute to significant reduction”. For the same compound, the “reduction of TRAP mRNA level” value in [1] (setting [10]) is on record as 35%. Moreover, the “TRAP mRNA level” value in [1] (setting [11]) is “did not contribute to significant reduction”. Moreover, the “expression of TRAP” value in assay [1] is given as “did not significantly alter”. The “reduction of OSCAR mRNA level” value in assay [2] (setting [10]) was 21%. In [2] (setting [11]), the “OSCAR mRNA level” value is listed as “did not contribute to significant reduction”. The “reduction of the level of NFATc1” value stood at 48% with NFATc1 [3] (20 μM salubrinal, 8 h, with RANKL) and 44% in the assay on NFATc1 [3] (20 μM salubrinal, 24 h, with RANKL). Further, in the assay on NFATc1 [3] (20 μM salubrinal, early period (2-4 h), with RANKL), the “level of NFATc1” value was “did not alter”. Moreover, the “RANKL-induced expression of NFATc1” value with NFATc1 [3] (5-20 μM salubrinal, day 2 and day 4, dose dependent) is “reduced”. In the assay with NFATc1 [3], the “expression of NFATc1” value is given as “did not significantly alter”. Further, in the assay on p-eIF2α [4] (20 μM salubrinal, early period (2-4 h)), the “level of p-eIF2α” value is reported as “increased the level of p-eIF2α”. For the same compound, the “phosphorylation level of ERK” value in the assay on p-ERK is given as “did not significantly alter; also recorded: no detectable changes”. Also, the “phosphorylation level of p38 MAPK” value in the assay on p-p38 MAPK is “did not significantly alter; also recorded: no detectable changes”. Also, the “phosphorylation level of NFκB” value in the assay on p-NFκB is given as “did not significantly alter; also recorded: no detectable changes”. Moreover, the “reduction of NFATc1” value was 20% with NFATc1 [5] (cells transfected with eIF2α siRNA) and 56% in the assay on NFATc1 [5] (setting [9]). In addition, the “phosphorylation of eIF2α” value in the assay on p-eIF2α [6] (5 μM salubrinal) is reported as “elevated phosphorylation of eIF2α”. The results for the “increase of the level of osteocalcin mRNA” value in the assay with Osteocalcin (OCN) (24 h) and in the assay on Osteocalcin (OCN) (32 h) were 3.3±0.5 fold and 3.3±0.3 fold, respectively. Also, the “salubrinal-driven elevation of the osteocalcin mRNA level” value with Osteocalcin (OCN) (ATF4 expression reduced by RNA interference) is on record as “suppressed”.

These data come from patent US20160279079A1, “COMPOSITIONS AND METHODS FOR TREATING BONE DISEASES” (INDIANA UNIVERSITY RESEARCH AND TECHNOLOGY CORPORATION, priority 2013, published 2016).
